In US7414077B2, “Therapeutic intervention to mimic the effect of caloric restriction” (priority 1999, dated 2008):

Experiments:
[1] = tested on: 5′ deiodinase; assay: effect of in vitro free fatty acids on 5′ deiodinase activity (thyroid hormone synthesis in vitro); type: biochemical; details: 1 mM free fatty acid; as a function of substrate concentration
Method: (§1) Reaction velocities were measured under control conditions (▴) and in the presence of 1 mM free fatty acids palmitic acid (●) and oleic acid (▪). Each point on the curve represents the mean of triplicate determinations. Lineweaver-Burk plots described lines characterized by r^2 from 0.988-0.999.

[2] = tested on: 5′ deiodinase; assay: 5′ deiodinase activity as a function of substrate concentration (Lineweaver-Burk), control conditions; type: biochemical; details: in vitro, without free fatty acids, mean of triplicate determinations, Lineweaver-Burk plot, FIG. 2A
Method: as §1

CCCCCCCC/C=C\CCCCCCCC(=O)O [oleic acid]
effect on thyroid hormone synthesis in vitro (5′ deiodinase activity) [1]: inhibit thyroid hormone synthesis in vitro

CCCCCCCCCCCCCCCC(=O)O [palmitic acid]
effect on thyroid hormone synthesis in vitro (5′ deiodinase activity) [1]: inhibit thyroid hormone synthesis in vitro

N[C@@H](Cc1ccc(Oc2cc(I)c(O)c(I)c2)c(I)c1)C(=O)O [rT3]
Km [2]: 2.38 µM
